In ChEMBL document CHEMBL4739716, “Gpr139 receptor modulators” (2020):

Columns and labels:
[1] = molecular target: T1, Probable G-protein coupled receptor 139 (Rattus norvegicus, UniProt P0C0W8); assay: Agonist activity at rat GPR139 expressed in CHO-K1 cells assessed as increase in calcium flux by calcium 5 dye based FLIPR assay; format: cell-based
T1 sequence (P0C0W8 whole entry): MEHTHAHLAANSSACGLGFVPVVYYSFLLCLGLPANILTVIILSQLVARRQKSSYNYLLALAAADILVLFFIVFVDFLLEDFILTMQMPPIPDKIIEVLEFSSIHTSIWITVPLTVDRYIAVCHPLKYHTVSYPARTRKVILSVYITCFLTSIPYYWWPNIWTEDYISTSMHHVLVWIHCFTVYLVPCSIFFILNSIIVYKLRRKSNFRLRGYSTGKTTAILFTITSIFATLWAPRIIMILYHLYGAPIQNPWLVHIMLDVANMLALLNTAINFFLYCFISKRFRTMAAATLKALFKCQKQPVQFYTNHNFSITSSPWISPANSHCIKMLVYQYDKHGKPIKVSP

[2] = molecular target: T2, Probable G-protein coupled receptor 139 (Homo sapiens, UniProt Q6DWJ6); assay: Agonist activity at human GPR139 expressed in CHO-K1 cells assessed as increase in calcium flux by calcium 5 dye based FLIPR assay; format: functional, cell-based
T2 sequence (Q6DWJ6 whole entry): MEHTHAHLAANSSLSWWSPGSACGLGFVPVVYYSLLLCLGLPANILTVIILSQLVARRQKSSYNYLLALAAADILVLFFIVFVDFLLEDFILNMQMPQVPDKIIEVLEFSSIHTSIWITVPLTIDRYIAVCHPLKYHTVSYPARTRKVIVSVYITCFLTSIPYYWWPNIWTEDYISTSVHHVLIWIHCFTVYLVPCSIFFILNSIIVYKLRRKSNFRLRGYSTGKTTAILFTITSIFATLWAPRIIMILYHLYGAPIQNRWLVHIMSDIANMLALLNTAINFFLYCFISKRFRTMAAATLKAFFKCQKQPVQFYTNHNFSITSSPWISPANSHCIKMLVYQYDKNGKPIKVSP

[3] = molecular target: T3, Probable G-protein coupled receptor 139 (Homo sapiens) (UniProt Q6DWJ6); assay: Agonist activity at human GPR139 expressed in CHO-K1 cells assessed as increase in calcium flux by calcium 5 dye based FLIPR assay relative to JNJ63533054; format: functional, cell-based; conditions: filed as agonist
T3 sequence (whole entry): T2 sequence (Q6DWJ6 whole entry)

[4] = molecular target: T2, Probable G-protein coupled receptor 139; assay: Agonist activity at human GPR139 expressed in CHO-K1 cells assessed as induction of beta-arrestin 2 recruitment incubated for 90 mins by PathHunter assay; format: cell-based
[5] = molecular target: T3, Probable G-protein coupled receptor 139 (Homo sapiens); assay: Agonist activity at human GPR139 expressed in CHO-K1 cells assessed as induction of beta-arrestin 2 recruitment incubated for 90 mins by PathHunter assay relative to JNJ63533054; format: cell-based
[6] = molecular target: T4, Probable G-protein coupled receptor 139 (Rattus norvegicus) (UniProt P0C0W8); assay: Agonist activity at rat GPR139 expressed in CHO-K1 cells assessed as increase in calcium flux by calcium 5 dye based FLIPR assay relative to JNJ63533054; format: cell-based
T4 sequence (whole entry): T1 sequence (P0C0W8 whole entry)

SMILES | EC50 [1] [nM] | EC50 [2] [nM] | Emax [3] [%] | EC50 ([4]; cho-k1) [nM] | Emax ([5]; filed as agonist) [%] | Emax ([6]; filed as agonist) [%] | EC50 ([1]; cho-k1) [nM] | EC50 ([2]; cho-k1) [nM] | EC50 [4] [nM] | Emax [5] [%] | Emax [6] [%]
C[C@H](NC(=O)Cn1nc2ccc(F)cn2c1=O)c1ccc(Cl)c(F)c1 | < 1 | < 1 | > 80 | 1 | > 80 | > 80 | – | – | – | – | –
Cc1ccc([C@H](C)NC(=O)Cn2nc3cc(C)ccn3c2=O)cc1 | < 1 | < 1 | > 80 | 1 | 50 | 50 | – | – | – | – | –
Cc1ccc([C@H](C)NC(=O)Cn2nc3ccc(F)cn3c2=O)cc1F | < 1 | < 1 | > 80 | 1 | 50 | 50 | – | – | – | – | –
C[C@H](NC(=O)Cn1nc2cccnn2c1=O)c1ccc(Cl)c(F)c1 | – | – | > 80 | 10 | 50 | > 80 | 1 | 1 | – | – | –
C[C@H](NC(=O)Cn1nc2cc(Cl)cnn2c1=O)c1ccc(OC(F)(F)F)cc1 | – | – | > 80 | – | – | 50 | 1 | 1 | ≥ 100 | 25 | –
C[C@H](NC(=O)Cn1nc2ccccn2c1=O)c1ccc(C(F)(F)F)cc1 | – | – | > 80 | 10 | 50 | – | 1 | 1 | – | – | 25
C[C@H](NC(=O)Cn1nc2ccc(C3CC3)nn2c1=O)c1ccc(OC(F)(F)F)cc1 | ≥ 100 | – | > 80 | 10 | – | – | – | 1 | – | 25 | < 25
COc1ccn2c(=O)n(CC(=O)N[C@@H](C)c3ccc(Cl)c(F)c3)nc2c1 | < 1 | < 1 | > 80 | 1 | > 80 | 50 | – | – | – | – | –
Cc1cc(Cl)ccc1[C@H](C)NC(=O)Cn1nc2cccnn2c1=O | – | – | > 80 | – | 50 | 50 | 1 | 1 | ≥ 100 | – | –
Cc1ccc([C@H](C)NC(=O)Cn2nc3c(F)cccn3c2=O)cc1 | – | – | > 80 | – | 50 | 50 | 1 | 1 | ≥ 100 | – | –
C[C@H](NC(=O)Cn1nc2ccc(C#N)cn2c1=O)c1ccc(Cl)c(F)c1 | – | < 1 | > 80 | 1 | > 80 | 50 | 1 | – | – | – | –
C[C@H](NC(=O)Cn1nc2cc(NC3COC3)ccn2c1=O)c1ccc(Cl)c(F)c1 | < 1 | – | > 80 | 1 | > 80 | > 80 | – | 1 | – | – | –
O=C(Cn1nc2ccc(F)cn2c1=O)NC1(c2cccc(Cl)c2)CC1 | ≥ 100 | ≥ 100 | > 80 | – | – | 50 | – | – | ≥ 100 | 25 | –
C[C@H](NC(=O)Cn1nc2cc(-c3ccccc3)ccn2c1=O)c1ccc(Cl)c(F)c1 | < 1 | < 1 | > 80 | – | > 80 | > 80 | – | – | < 1 | – | –
C[C@H](NC(=O)Cn1nc2cc(C3CC3)cnn2c1=O)c1ccc(Cl)c(F)c1 | < 1 | < 1 | > 80 | 1 | > 80 | > 80 | – | – | – | – | –
